Assay results reported in PubChem BioAssay (NCI).
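Interpolation was linear, between the two tested concentrations surrounding the appropriate level; five concentrations were tested over 48 hours in 96-well plates. TGI is the concentration that stops growth completely.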

How the values were obtained:
Experiment in all cases: NCI-60 cell line screen, 48 h
[1] = test system: DU-145 prostate
[2] = test system: U251 CNS
[3] = test system: SN12C renal
[4] = test system: IGROV1 ovarian
[5] = test system: BT-549 breast
[6] = test system: RPMI-8226 leukemia
[7] = test system: SNB-19 CNS
[8] = test system: HOP-62 NSCLC
[9] = test system: HS 578T breast
[10] = test system: SW-620 colon
[11] = test system: K-562 leukemia
[12] = test system: MOLT-4 leukemia
[13] = test system: HCC-2998 colon
[14] = test system: SF-268 CNS
[15] = test system: HL-60(TB) leukemia
[16] = test system: TK-10 renal
[17] = test system: HCT-15 colon
[18] = test system: NCI-H226 lung
[19] = test system: 786-0 renal
[20] = test system: LOX IMVI melanoma
[21] = test system: SF-295 CNS
[22] = test system: A498 renal
[23] = test system: A549 NSCLC
[24] = test system: SR leukemia
[25] = test system: NCI-H23 lung
[26] = test system: MDA-MB-435
[27] = test system: ACHN renal
[28] = test system: UACC-62 melanoma
[29] = test system: MDA-N
[30] = test system: SK-MEL-5 melanoma
[31] = test system: CAKI-1 renal
[32] = test system: OVCAR-3 ovarian
[33] = test system: MALME-3M melanoma
[34] = test system: UO-31 renal
[35] = test system: CCRF-CEM leukemia
[36] = test system: NCI-H522 lung
[37] = test system: HT29 colon
[38] = test system: OVCAR-8 ovarian
[39] = test system: MDA-MB-231 breast
[40] = test system: SF-539 CNS
[41] = test system: EKVX NSCLC
[42] = test system: PC-3 prostate
[43] = test system: HCT-116 colon
[44] = test system: MCF7 breast
[45] = test system: COLO 205 colon
[46] = test system: SK-OV-3 ovarian
[47] = test system: UACC-257 melanoma
[48] = test system: NCI/ADR-RES ovarian
[49] = test system: HOP-92 NSCLC
[50] = test system: KM12 colon
[51] = test system: OVCAR-4 ovarian
[52] = test system: SK-MEL-28 melanoma
[53] = test system: NCI-H460 lung
[54] = test system: M14 melanoma
[55] = test system: SK-MEL-2 melanoma
[56] = test system: OVCAR-5 ovarian

COc1cccc(NC(=O)CC(=O)Nc2cccc(OC)c2)c1
TGI [1]: > 100 µM
TGI [2]: > 100 µM
TGI [3]: > 100 µM
TGI [4]: > 100 µM
TGI [5]: > 100 µM
TGI [6]: > 100 µM
TGI [7]: > 100 µM
TGI [8]: > 100 µM
TGI [9]: > 100 µM
TGI [10]: > 100 µM
TGI [11]: > 100 µM
TGI [12]: > 100 µM
TGI [13]: > 100 µM
TGI [14]: > 100 µM
TGI [15]: > 100 µM
TGI [16]: > 100 µM
TGI [17]: > 100 µM
TGI [18]: > 100 µM
TGI [19]: > 100 µM
TGI [20]: > 100 µM
TGI [21]: > 100 µM
TGI [22]: > 100 µM
TGI [23]: > 100 µM
TGI [24]: > 100 µM
TGI [25]: > 100 µM
TGI [26]: > 100 µM
TGI [27]: > 100 µM
TGI [28]: > 100 µM
TGI [29]: > 100 µM
TGI [30]: > 100 µM
TGI [31]: > 100 µM
TGI [32]: > 100 µM
TGI [33]: > 100 µM
TGI [34]: > 100 µM
TGI [35]: > 100 µM
TGI [36]: > 100 µM
TGI [37]: > 100 µM
TGI [38]: > 100 µM
TGI [39]: > 100 µM
TGI [40]: > 100 µM
TGI [41]: > 100 µM
TGI [42]: > 100 µM
TGI [43]: > 100 µM
TGI [44]: > 100 µM
TGI [45]: > 100 µM
TGI [46]: > 100 µM
TGI [47]: > 100 µM
TGI [48]: > 100 µM
TGI [49]: > 100 µM
TGI [50]: > 100 µM
TGI [51]: > 100 µM
TGI [52]: > 100 µM
TGI [53]: > 100 µM
TGI [54]: > 100 µM
TGI [55]: > 100 µM

O=c1cc(NNc2ccc3ccccc3c2)[nH]c(=S)[nH]1
TGI [1]: > 100 µM
TGI [2]: > 100 µM
TGI [3]: > 100 µM
TGI [4]: > 100 µM
TGI [5]: > 100 µM
TGI [6]: > 100 µM
TGI [7]: > 100 µM
TGI [8]: 98.3 µM
TGI [9]: > 100 µM
TGI [10]: 36.8 µM
TGI [11]: 41.1 µM
TGI [13]: > 100 µM
TGI [14]: 80 µM
TGI [15]: 69.5 µM
TGI [16]: > 100 µM
TGI [17]: 34.1 µM
TGI [18]: > 100 µM
TGI [19]: 39.6 µM
TGI [20]: 26 µM
TGI [21]: > 100 µM
TGI [22]: > 100 µM
TGI [23]: > 100 µM
TGI [24]: > 100 µM
TGI [25]: > 100 µM
TGI [26]: > 100 µM
TGI [27]: > 100 µM
TGI [29]: > 100 µM
TGI [30]: > 100 µM
TGI [32]: 34.1 µM
TGI [33]: > 100 µM
TGI [34]: > 100 µM
TGI [37]: 30 µM
TGI [38]: > 100 µM
TGI [39]: > 100 µM
TGI [40]: 82.1 µM
TGI [41]: > 100 µM
TGI [42]: 46.4 µM
TGI [43]: > 100 µM
TGI [44]: 66.6 µM
TGI [45]: 46 µM
TGI [47]: > 100 µM
TGI [48]: > 100 µM
TGI [49]: 62.1 µM
TGI [50]: 38.3 µM
TGI [51]: > 100 µM
TGI [56]: > 100 µM
TGI [52]: > 100 µM
TGI [53]: > 100 µM
TGI [54]: > 100 µM
